Assays:
[1] = tested on: pro-collagen synthesis in Hs27/HEK001 cells; settings: generally known value for the control substance; cited from earlier work
[2] = tested on: pro-collagen synthesis in Hs27/HEK001 cells; assay: Pro-Collagen Synthesis In Vitro Assay (Procollagen ELISA); assay type: cell-based, human
Description: Hs27/HEK001 cells are plated at 10,000/40,000 cells per well of 96-well plate. Hs27 cells are normal human fibroblasts derived from a foreskin source. […] cells are a human epidermal cell line that originally was derived from human scalp keratinocytes. […] Hs27/HEK001 cells are allowed to attach overnight. Following overnight incubation, media is removed from the wells and replaced with 100 μl fresh media.
After overnight incubation, the test samples are added to wells in triplicate to final concentrations of 1, 10, and 100 μg/ml. The cells with test sample added are incubated overnight and supernatants are collected for analysis using a Procollagen ELISA kit from Takara Bio, Inc. (Japan). The EC50 concentration for each test sample is monitored and recorded to evaluate variability over time.
Controls for this assay include administration of 0.1, 1, and 10 μg/ml ascorbic acid and all-trans-retinoic acid to H27/HEK cells. Untreated cells also are used as a negative control. It generally is known that ascorbic acid increases pro-collagen synthesis by approximately 15-20% compared to untreated control.

[3] = tested on: glycosaminoglycan production; assay: Synthesis of glycosaminoglycans after allantoin administration; assay type: cell-based
elastin = assay: Elastin synthesis after allantoin administration; assay type: cell-based

Compound	increase in pro-collagen synthesis compared to untreated control [1]	Pro-collagen synthesis, percent of untreated control ([2]; allantoin at 100 μg/ml, average of triplicate wells)	average increase in pro-collagen synthesis ([2]; at 100 μg/ml)	dose dependence of pro-collagen synthesis ([2]; final concentrations of 1, 10, and 100 μg/ml)	Glycosaminoglycan synthesis, percent of untreated control ([3]; allantoin at 100 μg/ml)	average increase in glycosaminoglycan production ([3]; at 100 μg/ml)	Elastin synthesis, percent of untreated control (elastin; allantoin at 100 μg/ml)	average increase in elastin (elastin; at 100 μg/ml)
O=C1O[C@H]([C@@H](O)CO)C(O)=C1O [ascorbic acid]	15-20%							
NC(=O)NC1NC(=O)NC1=O (centres unmarked) [Allantoin, 2,5-dioxy-4-imidazolidinyl urea]		124.1%	24.1%	dose-dependent increase in pro-collagen synthesis	111.2%	11.2%	106.2%	6.2%

— patent publication US20080108681A1 (Access Business Group International LLC, priority 2006, published 2008)
